Data as given in patent publication US20100197581A1, “NATIVE GP41 ASSAY” (priority 2007, published 2010).
pEC50: −log10 of the molar value. Where two headings read alike, the source gives them in different places.

Key:
[1] = biological target: T1, gp41 (HR1 region) in native HIV-1 envelope spikes on HUTIIIB cells (Human immunodeficiency virus type 1 group M subtype B, UniProt P04578, V708A); type: binding, HIV-1 IIIB
[2] = biological target: T1, gp41 (HR1 region) in native HIV-1 envelope spikes on HUTIIIB cells; details: for activity in native gp41 assay (words, Table 4 results): reference compounds, flow cytometric- and HCS-based assay
Protocol: A serial dilution of test compounds, dissolved in DMSO, were diluted in culture medium (RPMI1640 with Ultraglutamin and Hepes w/o phenol red with 10% bovine calf serum (HyClone) and 20 μg/l gentamycin) with a final DMSO concentration of 1% and added to 384 well Cell Carrier plates (Evotec Technologies). Hut-IIIB cells (15000 cells/well) were added to these test plates and incubated for 30 min at room temperature. […] Finally, a solution of DRAQ 5 in PBS (final concentration of 5 μM) was added to the wells. After incubating the plates for 30′ at room temperature, the test plates were measured using the Opera™ confocal microscope high content screening platform (Evotec Technologies). After every addition, mixing of the well content was achieved by placing the 384w plates on a 384w shaker (MixMate, Eppendorf) for 5 seconds at 2000 rpm.
Image acquisition was performed using a 40× water immersion objective and simultaneous excitation of FITC and Draq5 fluorescence with a 488 and a 635 laser. […] Output parameters of the script included among others “mean (number of spots per cell)” and “mean (integrated spot signal)”. […] Furthermore, potential false positive results due to fluorescence or false negative results due to quenching can be assessed by comparing the inhibition curves generated by the two above mentioned output parameters.

[3] = small molecules, specificity experiments, flow cytometry, read-out: Native gp41 EC50
[4] = optimized protocol, […] C34-FITC, 75000 cells/well, compound added before sCD4, 3 independent experiments, read-out: EC50 flow cytometry

O=C(O)C1=CC(=C(c2ccc(O)c(C(=O)O)c2)c2ccc(O)c(C(=O)O)c2)C=CC1=O [ATA]
inhibition of C34-FITC binding ([1]; small molecules, specificity experiments): about 40%
pEC50 [1, 3]: < 3.70

Cc1cn([C@H]2C[C@H](N=[N+]=[N-])[C@@H](CO)O2)c(=O)[nH]c1=O [AZT]
pEC50 [1, 3]: < 3.70

COc1ccnc2[nH]cc(C(=O)C(=O)N3CCN(C(=O)c4ccccc4)C[C@H]3C)c12 [BMS-806]
pEC50 [1, 4]: 7.89
pEC50 [1, 3]: < 3.70
difference between addition of compound before, after or together with sCD4 induction ([1]; three orders of addition, FIG. 1): large increase of sensitivity when the compound was added before or together with sCD4
pEC50 ([2]; read-out: EC50 HCS, mean number of spots per cell, 0.5 nM C34-FITC, compound added before sCD4, 3 independent experiments): 8.37
activity in native gp41 assay (words, Table 4 results) [2]: active

O=C1Nc2ccc(Cl)cc2[C@@](C#CC2CC2)(C(F)(F)F)O1 [EFV]
pEC50 [1, 4]: < 3.70
pEC50 [1, 3]: < 3.70
cytotoxicity in HCS native gp41 assay ([2]; Hut-IIIB cells, 200 μM): cytotoxicity
activity in native gp41 assay (words, Table 4 results) [2]: no activity

O=C(NCc1ccc(F)cc1)c1nc(N2CCCCS2(=O)=O)c2cccnc2c1O [L870,810]
pEC50 [1, 3]: < 3.70

CC(C)(C)NC(=O)[C@@H]1C[C@@H]2CCCC[C@@H]2CN1C[C@@H](O)[C@H](Cc1ccccc1)NC(=O)[C@H](CC(N)=O)NC(=O)c1ccc2ccccc2n1 [SQV]
pEC50 [1, 3]: < 3.70
